Results published in ChEMBL document CHEMBL5441381, “ASAP - In vitro antiviral effect” (2024).

How the values were obtained:
[1] = system: SARS-CoV-2; assay: (§1) Functional immunofluorescence assay to measure dose dependent changes in antiviral-drug inhibitory efficacy against hCoV-19/USA-WA1/2020 in HeLa-ACE2 cells which are seeded prior to drug treatment, then infected with hCoV-19/USA-WA1/2020. Cells are fixed with 10 % formaldehyde, washed with PBS, permeabilized with permeabilization buffer, then washed with wash buffer. The cells are incubated with nucleoprotein primary antibody IC7C7. Following primary staining, cells are washed with wash buffer and incubated in a solution of with Alexa fluor 488 and DAPI. Infected and uninfected cells are visualized and analyzed by Gen5 software. The assay has been performed by Icahn School of Medicine at Mount Sinai.; format: organism-based, Homo sapiens
[2] = system: SARS-CoV-2; assay: as §1, with “iPSC-Pneumocyte” for “HeLa-ACE2”, “to” for “to drug”; format: organism-based, Homo sapiens; settings: Severe acute respiratory syndrome coronavirus 2, Pneumocyte
[3] = Severe acute respiratory syndrome coronavirus 2, HeLa-ACE2

In the case of `Cn1ncc(-c2cc3c(N[C@@H](c4ccc5c(c4)OCCO5)C(C)(C)C)ncnc3[nH]2)c1C#N`, the EC90 ([1]; Baseline response 0 %, EC90 CI (lower) 0.293 uM, EC90 CI (upper) 0.492 uM, Hill slope -2.031, Maximum measured 93.387 %, Maximum response 100 %, Minimum measured 1.413 %, R squared 0.981) is reported as 3.3 µM, the EC50 [1, 3] is reported as 1.05 µM and the EC90 ([1]; Severe acute respiratory syndrome coronavirus 2, HeLa-ACE2, Baseline response 0 %, EC90 CI (lower) 0.423 uM, EC90 CI (upper) 0.632 uM, Hill slope -3.108, Maximum measured 91.316 %, Maximum response 100 %, Minimum measured 1.9 %, R squared 0.978) is reported as 2.12 µM. The EC50 ([1]; hela-ace2) was 1.12 µM, the EC50 [2] was 7.67 µM and the EC90 ([2]; Baseline response 0 %, EC90 CI (lower) 1.944 uM, EC90 CI (upper) 9.946 uM, Hill slope -3.954, Maximum measured 131.986 %, Maximum response 100 %, Minimum measured 2.165 %, R squared 0.772) was 13.4 µM.
`CC(C)[C@@H](Nc1ncnc2[nH]c(C(=O)N[C@H]3CCN(C)C3)cc12)c1ccc2c(c1)S(=O)(=O)CCC2` was tested, and the EC50 [1, 3] was > 20 µM, the EC90 ([1]; Severe acute respiratory syndrome coronavirus 2, HeLa-ACE2, Baseline response 0 %, Hill slope -0.107, Maximum measured 102.123 %, Maximum response 100 %, Minimum measured 84.181 %, R squared 0.016) was > 20 µM and the EC50 [2] was > 50 µM. For the same compound, the EC90 ([2]; Baseline response 0 %, Hill slope -0.859, Maximum measured 114.501 %, Maximum response 100 %, Minimum measured 59.767 %, R squared 0.551) was > 50 µM.
For `CNC(=O)Cn1cc(-c2cc3c(N[C@H](c4ccc5c(c4)S(=O)(=O)CCC5)C(C)C)ncnc3[nH]2)cn1`, the EC50 [1, 3] was > 20 µM, the EC90 ([1]; Severe acute respiratory syndrome coronavirus 2, HeLa-ACE2, Baseline response 0 %, Hill slope 0.543, Maximum measured 108.143 %, Maximum response 100 %, Minimum measured 92.194 %, R squared 0.052) was > 20 µM and the EC50 [2] was > 50 µM. The EC90 ([2]; Baseline response 0 %, Hill slope -0.24, Maximum measured 106.027 %, Maximum response 100 %, Minimum measured 60.326 %, R squared 0.31) was > 50 µM.
`CCNC(=O)c1cc2c(N[C@@H](c3ccc4c(c3)OCCO4)C(C)C)ncnc2[nH]1` was tested, and the EC50 [1, 3] was > 20 µM, the EC90 ([1]; Severe acute respiratory syndrome coronavirus 2, HeLa-ACE2, Baseline response 0 %, Hill slope -1.909, Maximum measured 113.12 %, Maximum response 100 %, Minimum measured 80.543 %, R squared 0.285) was > 20 µM and the EC90 ([1]; Severe acute respiratory syndrome coronavirus 2, HeLa-ACE2, Maximum measured 94.861 %, Minimum measured 54.623 %) was > 20 µM. For the same compound, the EC90 ([1]; Severe acute respiratory syndrome coronavirus 2, HeLa-ACE2, Maximum measured 122.873 %, Minimum measured 70.184 %) was > 20 µM, the EC50 [2] was 41.1 µM and the EC90 ([2]; Baseline response 0 %, Hill slope -8.576, Maximum measured 136.848 %, Maximum response 100 %, Minimum measured 15.577 %, R squared 0.308) was > 50 µM.
For `CC(C)[C@H](Nc1ncnc2[nH]c(-c3cnn(CC(N)=O)c3)cc12)c1ccc2c(c1)S(=O)(=O)CCC2`, the EC50 [1, 3] was > 20 µM, the EC90 ([1]; Severe acute respiratory syndrome coronavirus 2, HeLa-ACE2, Baseline response 0 %, Hill slope 1.066, Maximum measured 108.399 %, Maximum response 100 %, Minimum measured 92.21 %, R squared 0.046) was > 20 µM and the EC50 [2] was > 50 µM. For the same compound, the EC90 ([2]; Baseline response 0 %, Hill slope -0.706, Maximum measured 119.318 %, Maximum response 100 %, Minimum measured 70.174 %, R squared 0.133) was > 50 µM.
`CC(C)[C@@H](Nc1ncnc2[nH]c(-c3cnn(C)c3C#N)cc12)c1ccc2c(c1)S(=O)(=O)CCC2` showed an EC50 [1, 3] of 3.51 µM, an EC90 ([1]; Severe acute respiratory syndrome coronavirus 2, HeLa-ACE2, Baseline response 0 %, EC90 CI (lower) 0.517 uM, EC90 CI (upper) 1.693 uM, Hill slope -1.661, Maximum measured 114.163 %, Maximum response 100 %, Minimum measured 4.545 %, R squared 0.935) of 13.2 µM and an EC50 [2] of 0.411 µM. It also gave an EC90 ([2]; Baseline response 0 %, EC90 CI (lower) 0.002 uM, EC90 CI (upper) 0.075 uM, Hill slope -0.637, Maximum measured 75.192 %, Maximum response 100 %, Minimum measured 0.111 %, R squared 0.781) of 13 µM.
`CC(C)[C@@H](Nc1ncnc2[nH]c(C(N)=O)cc12)c1ccc2c(c1)OCCO2` was tested, and the EC50 [1, 3] was > 20 µM, the EC90 ([1]; Severe acute respiratory syndrome coronavirus 2, HeLa-ACE2, Maximum measured 95.443 %, Minimum measured 3.395 %) was > 20 µM and the EC90 ([1]; Severe acute respiratory syndrome coronavirus 2, HeLa-ACE2, Maximum measured 108.483 %, Minimum measured 88.736 %) was > 20 µM. For the same compound, the EC50 [2] was > 50 µM and the EC90 ([2]; Baseline response 0 %, Hill slope -3.392, Maximum measured 162.718 %, Maximum response 100 %, Minimum measured 51.066 %, R squared 0.094) was > 50 µM.
`CC(C)[C@@H](Nc1ncnc2[nH]ccc12)c1ccc2c(c1)NC(=O)CO2` was tested, and the EC50 [1, 3] was > 50 µM, the EC90 ([1]; Severe acute respiratory syndrome coronavirus 2, HeLa-ACE2, Baseline response 0 %, Hill slope -2.239, Maximum measured 123.573 %, Maximum response 100 %, Minimum measured 69.199 %, R squared 0.469) was > 50 µM and the EC50 [2] was > 50 µM. For the same compound, the EC90 ([2]; Maximum measured 145.289 %, Minimum measured 92.172 %) was > 50 µM.
